{
  "source": "paper PMC5750651",
  "about": "“Disposition, Metabolism and Histone Deacetylase and Acetyltransferase Inhibition Activity of Tetrahydrocurcumin and Other Curcuminoids” (Pharmaceutics, 2017)",
  "key": {"COX-1": {"target": "T1, COX-1 (Ovis aries, UniProt P05979)", "T1 construct": "purchased Cayman Chemical 560131", "T1 sequence (P05979 25-600)": "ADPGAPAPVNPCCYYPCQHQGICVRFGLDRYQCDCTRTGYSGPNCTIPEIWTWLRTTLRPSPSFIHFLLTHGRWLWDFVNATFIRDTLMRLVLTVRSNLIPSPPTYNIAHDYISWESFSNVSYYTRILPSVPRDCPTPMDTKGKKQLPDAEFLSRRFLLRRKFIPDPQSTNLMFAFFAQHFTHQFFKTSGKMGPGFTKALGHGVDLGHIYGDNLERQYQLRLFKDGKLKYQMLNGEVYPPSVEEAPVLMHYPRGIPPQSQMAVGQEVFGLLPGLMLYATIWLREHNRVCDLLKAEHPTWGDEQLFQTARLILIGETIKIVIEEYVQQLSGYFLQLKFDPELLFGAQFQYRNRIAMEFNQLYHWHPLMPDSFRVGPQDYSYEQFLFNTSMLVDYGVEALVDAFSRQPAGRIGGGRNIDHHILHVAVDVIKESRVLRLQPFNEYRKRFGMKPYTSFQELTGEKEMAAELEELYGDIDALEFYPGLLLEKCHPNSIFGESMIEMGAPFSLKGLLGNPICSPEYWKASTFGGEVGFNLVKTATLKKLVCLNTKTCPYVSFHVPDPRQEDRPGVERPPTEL", "assay": "COX inhibitor screening assay kit, COX-1", "format": "biochemical", "conditions": "mean ± SD", "procedure": "The assay was performed in quadruplet using a COX Inhibitor Screening Assay Kit from Cayman Chemical (Cat. No. 560131) according to the manufacturer’s instructions."}, "CYP2C9": {"target": "T2, CYP2C9 (Homo sapiens, UniProt P11712)", "T2 construct": "purchased Life Technologies P2860", "T2 sequence (P11712 whole entry)": "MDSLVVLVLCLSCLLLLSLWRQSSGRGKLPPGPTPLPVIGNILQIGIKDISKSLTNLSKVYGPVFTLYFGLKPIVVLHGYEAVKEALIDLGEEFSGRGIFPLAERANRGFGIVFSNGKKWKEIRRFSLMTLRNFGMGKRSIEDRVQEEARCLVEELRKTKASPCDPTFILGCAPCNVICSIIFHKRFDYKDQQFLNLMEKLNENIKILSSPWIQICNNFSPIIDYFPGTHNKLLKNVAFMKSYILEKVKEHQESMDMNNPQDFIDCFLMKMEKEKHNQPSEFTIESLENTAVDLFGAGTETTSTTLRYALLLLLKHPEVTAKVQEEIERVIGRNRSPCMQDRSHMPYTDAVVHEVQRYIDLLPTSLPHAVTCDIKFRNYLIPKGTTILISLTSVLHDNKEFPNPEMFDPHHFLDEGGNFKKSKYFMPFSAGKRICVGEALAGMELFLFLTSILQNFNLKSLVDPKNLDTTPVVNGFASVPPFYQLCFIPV", "assay": "Vivid CYP450 screening kit, CYP2C9", "format": "in vitro ADME", "conditions": "0.01-100 μM, relative to sulfaphenazole"}, "CYP2D6": {"target": "CYP2D6 (Homo sapiens, UniProt P10635)", "sequence (P10635 whole entry)": "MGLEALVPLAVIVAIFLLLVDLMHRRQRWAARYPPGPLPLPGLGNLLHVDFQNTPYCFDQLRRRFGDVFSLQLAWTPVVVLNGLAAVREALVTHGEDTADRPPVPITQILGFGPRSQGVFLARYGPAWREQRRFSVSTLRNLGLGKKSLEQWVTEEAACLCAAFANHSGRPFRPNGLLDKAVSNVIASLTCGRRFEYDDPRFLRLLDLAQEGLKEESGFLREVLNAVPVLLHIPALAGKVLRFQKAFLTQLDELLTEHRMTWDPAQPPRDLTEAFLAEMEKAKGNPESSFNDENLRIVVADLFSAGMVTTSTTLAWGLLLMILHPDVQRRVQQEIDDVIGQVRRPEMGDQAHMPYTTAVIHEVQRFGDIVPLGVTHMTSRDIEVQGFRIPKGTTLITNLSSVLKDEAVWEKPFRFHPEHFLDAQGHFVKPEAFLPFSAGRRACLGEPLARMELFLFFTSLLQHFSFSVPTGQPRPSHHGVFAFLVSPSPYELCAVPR", "assay": "Vivid CYP450 screening kit, CYP2D6", "conditions": "0.01-100 μM", "procedure": "CYP2C9, CYP3A4, CYP1A2 and CYP2D6 assays were performed to assess metabolism and inhibition of human P450 isozymes involved using Vivid® CYP450 screening kits and CYP450 BACULOSOMES® Plus Reagents. CYP450 BACULOSOMES® Plus Reagents express only one CYP450 enzyme, preventing metabolism by other CYP450s. For CYP2C9, the substrate was BOMF and the positive control inhibitor sulfaphenazole; for CYP3A4, DBOMF was the substrate and ketoconazole the positive control inhibitor; for CYP1A2, the substrate was EOMCC and the positive control inhibitor naphthoflavone; for CYP2D6, the substrate was EOMCC and the positive control inhibitor quinidine. The assays were performed using the excitation and emission wavelengths recommended by the manufacturer. […] The plate was incubated for 10 min at room temperature (25 ± 1 °C) on a plate shaker. Then, 10 μL of Vivid® Substrate was added to each well to start the reaction. […] The assay was done in triplicate. The reading was performed at 1 min intervals for 60 min. Inhibition was calculated as (1 − (X − B/A − B)) × 100%, where X was the average of compound fluorescence, A was the average of solvent control and B was the average of inhibition in the presence of positive inhibitor control. The percent inhibition was calculated relative to a fixed concentration of the positive control. […]"}, "PCAF": {"target": "T3, PCAF (Homo sapiens, UniProt Q92831)", "T3 construct": "purchased Cayman 10006515", "T3 sequence (Q92831 492-658 limits assumed)": "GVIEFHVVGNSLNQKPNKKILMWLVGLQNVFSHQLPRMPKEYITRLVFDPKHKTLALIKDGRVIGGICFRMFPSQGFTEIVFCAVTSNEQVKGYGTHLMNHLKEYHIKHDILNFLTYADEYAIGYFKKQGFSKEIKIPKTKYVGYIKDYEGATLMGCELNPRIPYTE", "assay": "PCAF inhibitor screening assay kit (fluorescence)", "format": "biochemical", "procedure": "Curcuminoids were tested for direct HDAC1 and PCAF inhibitory activity using the fluorescent-based HDAC1 or PCAF inhibitor screening assay kit ((HDAC1) 10011564, (PCAF) 10006515, Cayman, Ann Arbor, MI, USA) according to manufacturer’s instructions.\nData for the PCAF and HDAC1 inhibition and viability assays were used to derive percent changes based on no treatment controls. Each of three data sets were then fit to a 4-parameter logistic regression using SigmaPlot 12.2 to derive IC50 values, which were then used to determine the mean and SD."}, "[1]": {"assay": "Total antioxidant capacity assay kit (ABTS, Trolox equivalents)", "conditions": "with respect to Trolox"}, "[2]": {"target": "T4, 15-lipoxygenase derived from soybean (Glycine max, UniProt P08170)", "T4 sequence (P08170 1-839)": "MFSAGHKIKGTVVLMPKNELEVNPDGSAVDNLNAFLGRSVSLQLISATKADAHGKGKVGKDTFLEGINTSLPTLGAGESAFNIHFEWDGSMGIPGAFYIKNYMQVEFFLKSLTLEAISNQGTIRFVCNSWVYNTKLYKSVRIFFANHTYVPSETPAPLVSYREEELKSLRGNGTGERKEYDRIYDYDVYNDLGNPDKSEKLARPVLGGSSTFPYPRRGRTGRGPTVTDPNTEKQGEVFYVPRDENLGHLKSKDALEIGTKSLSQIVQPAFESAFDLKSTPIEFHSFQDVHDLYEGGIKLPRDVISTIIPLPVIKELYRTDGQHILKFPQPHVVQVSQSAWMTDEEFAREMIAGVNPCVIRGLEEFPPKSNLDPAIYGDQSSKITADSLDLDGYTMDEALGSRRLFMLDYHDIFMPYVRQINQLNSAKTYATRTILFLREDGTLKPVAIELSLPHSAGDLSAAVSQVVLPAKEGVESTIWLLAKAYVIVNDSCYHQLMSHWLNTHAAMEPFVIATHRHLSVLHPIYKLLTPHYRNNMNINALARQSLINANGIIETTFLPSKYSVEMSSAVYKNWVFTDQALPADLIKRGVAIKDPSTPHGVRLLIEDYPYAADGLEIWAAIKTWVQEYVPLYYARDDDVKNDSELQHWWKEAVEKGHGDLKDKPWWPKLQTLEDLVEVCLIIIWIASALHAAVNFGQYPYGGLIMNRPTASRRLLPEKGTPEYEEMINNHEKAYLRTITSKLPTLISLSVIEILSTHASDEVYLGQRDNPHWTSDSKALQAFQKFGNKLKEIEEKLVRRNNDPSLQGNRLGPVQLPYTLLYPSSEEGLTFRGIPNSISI", "assay": "Lipoxygenase inhibitor screening assay kit", "conditions": "for lipoxygenase inhibition (in words): 1, 10 and 250 μg/mL tested, versus control"}, "[3]": {"test_system": "TNF-α release in Sup-T1 cells", "assay": "Cellular inflammatory cytokine release assay (TNF-α ELISA)", "format": "cell-based, human", "conditions": "Sup-T1 cells, 5, 10, 50 and 100 μM, versus no-treatment control", "procedure": "Cell culture supernatant was collected and used to determine released TNF-α using the Human TNF-alpha DuoSet ELISA kit (DY210, R & D systems, Minneapolis, MN, USA) following the standard manufacturer’s protocol, optimized using recombinant TNF-α. […] The data were analyzed using SigmaPlot 12.2 (Systat Software Inc., San Jose, CA, USA)."}},
  "note": "“Also recorded” adds a separate entry of the source.",
  "data": [
    {"molecule": "COc1cc(/C=C/C(=O)COC(=O)/C=C/c2ccc(O)c(OC)c2)ccc1O", "note": "[Calebin-A, calebin-A]", "values": [
      {"measurement": "IC50", "setting": "COX-1", "value": "1070 ± 490", "unit": "µM"},
      {"measurement": "CYP2C9 inhibition (in words)", "setting": "CYP2C9", "value": "dose-dependent inhibition"},
      {"measurement": "CYP2D6 inhibition (in words)", "setting": "CYP2D6", "value": "did not show a consistent dose-response inhibition"},
      {"measurement": "IC50", "setting": "PCAF; mean ± SD", "value": "200 ± 31", "unit": "µM"},
      {"measurement": "fold less potent than curcumin, PCAF inhibition", "setting": "PCAF; ratio of PCAF IC50", "value": 6, "unit": "fold"},
      {"measurement": "concentration of greatest antioxidant effect", "setting": "[1]", "value": 100, "unit": "µM"},
      {"measurement": "lipoxygenase inhibition (in words)", "setting": "[2]", "value": "did not show any activity"},
      {"measurement": "lipoxygenase inhibition (in words)", "setting": "[2]; listed as calebin-A", "value": "no such inhibitory activity"},
      {"measurement": "change in TNF-α concentration (in words)", "setting": "[3]", "value": "no dose-response change"}
    ]},
    {"molecule": "COc1cc(CCC(=O)CC(=O)CCc2ccc(O)c(OC)c2)ccc1O", "note": "[THC, tetrahydrocurcumin]", "values": [
      {"measurement": "IC50", "setting": "COX-1", "value": "918 ± 1300", "unit": "µM"},
      {"measurement": "CYP2C9 inhibition (in words)", "setting": "CYP2C9", "value": "dose-dependent inhibition"},
      {"measurement": "CYP2D6 inhibition (in words)", "setting": "CYP2D6", "value": "did not show a consistent dose-response inhibition"},
      {"measurement": "PCAF inhibition (in words)", "setting": "PCAF; 0.1-250 μg/mL", "value": "no inhibitory activity"},
      {"measurement": "concentration of greatest antioxidant effect", "setting": "[1]", "value": 100, "unit": "µM"},
      {"measurement": "lipoxygenase inhibition (in words)", "setting": "[2]", "value": "inhibited soybean 1,5-lipoxygenase at all doses tested; also recorded: potent lipoxygenase inhibition"},
      {"measurement": "lowest concentration inhibiting lipoxygenase", "setting": "[2]; soybean 15-lipoxygenase, linoleic acid substrate", "value": "≤ 1", "unit": "µM"},
      {"measurement": "change in TNF-α concentration (in words)", "setting": "[3]", "value": "no dose-response change"}
    ]}
  ]
}
